Source: PMC3367934 (Molecular & Cellular Proteomics : MCP, 2012)

How the values were obtained:
[1] = test system: antibodies in serum from dnaX-immunized mice; assay type: binding, mouse
[2] = immune sera mixing experiment; assay type: in vivo, mouse; conditions: 6-week immune sera physically mixed 50:50

## dnaX protein: recombinant dnaX protein produced in E. coli
[1]
  ability to adsorb the signal from immune sera: Only the dnaX protein could adsorb the signal
[1]; of the 210 dnaX-specific peptides, beads bearing dnaX protein
  dnaX-specific peptides reduced in intensity by adsorption: 35 peptides

## Transferrin: irrelevant human protein used to adsorb the immune sera
[1]
  ability to adsorb the signal from immune sera: Only the dnaX protein could adsorb the signal

## PARYANANGRDLITLGIGSC
[2]
  distinguishability in 50:50 mixed sera: still distinguishable from the KLH-immunized mice
